The results in this text go back to patent publication US20130190345A1, “MATRINIC ACID/MATRINE DERIVATIVES AND PREPARATION METHODS AND USES THEREOF” (priority 2010, published 2013).

The experiment concerns Hsc70. The experiment is described as follows: Detection of Hsc70 gene expression level upon action of compound on 2.2.15 cells (real-time fluorescent quantified PCR). It is filed as cell-based. Details: Hsc70 mRNA / Hsc70 down-regulation rate (%): unit not given here. The following applies: 2.2.15 cells; for Hsc70 inhibition rate (down-regulation of Hsc70 expression activity, expressed in relative OMT ratio): relative to OMT (= 1); for Hsc70 mRNA: down-regulation of liver cell Hsc70 gene. The procedure:
2.2.15 cells (purchased from Vertex Pharmaceutical Co., USA) in a number of 1×10^6 were inocubated to 6-well plate, cultured in a culture medium containing 10% fetal calf serum for 24 hr, the original culture medium was discarded, replaced with a culutre medium containing 400 μg/ml OMTR, which was used as control. Compounds were firstly dissolved in MEM to form 20 mg/ml mother liquid, which was diluted with culture medium when used and then applied to cells. The compounds of Examples 1-114 were separately used for treatment for 12, 24, 36 hr, then cells were harvested for extraction of RNA and DNA, then the changes of Hsc70 mRNA and HBV DNA were detected by real-time fluorescent quantified PCR.

Regarding `O=C(O)CCCC1C2CCC[N+]3([O-])CCCC(CN1CC1CC1)C23` (centres unmarked) [DM-1151, N-cyclopropylmethyl oxymatrinic acid], the “Hsc70 inhibition rate (down-regulation of Hsc70 expression activity, expressed in relative OMT ratio)” value was 0.52.

With `O=C1CCC[C@@H]2[C@H]3CCC[N+]4([O-])CCC[C@@H](CN12)[C@@H]34` (some centres unmarked) [OMT, Oxymatrine, reference compound], the “Hsc70 inhibition rate (down-regulation of Hsc70 expression activity, expressed in relative OMT ratio)” value is recorded as 1.

As to `CCN1CC2CCCN3CCCC(C1CCCC(=O)O)C23` (centres unmarked) [DM-112, N-ethyl matrinic acid], the “Hsc70 inhibition rate (down-regulation of Hsc70 expression activity, expressed in relative OMT ratio)” value is under 10.

In the case of `COC1CC(=O)N2CC3CCCN4CCCC(C34)C2C1` (centres unmarked) [Compound 6a, 13-methoxy matrine], the “Hsc70 mRNA” value was found to be 48.6 ± 0.16.

For the molecule `O=C(OC1CC2C3CCCN4CCCC(CN2C(=O)C1O)C34)c1ccc(F)c([N+](=O)[O-])c1` (centres unmarked) [Compound 9i, 14-hydroxyl-13-(4-fluoro-3-nitro)benzoyloxy matrine], the “Hsc70 mRNA” value is recorded as 43.4 ± 0.08.

In the case of `O=C(O)CCCC1C2CCCN3CCCC(CN1C(=O)CO)C23` (centres unmarked) [DM-105, N-(2-hydroxyl)acetylmatrinic acid], the “Hsc70 inhibition rate (down-regulation of Hsc70 expression activity, expressed in relative OMT ratio)” value is under 10.

Take `CCCN1CC2CCCN3CCCC(C1CCCC(=O)O)C23` (centres unmarked) [DM-113, N-propyl matrinic acid]: the “Hsc70 inhibition rate (down-regulation of Hsc70 expression activity, expressed in relative OMT ratio)” value was under 10.

Take `COc1ccc(CN2CC3CCC[N+]4([O-])CCCC(C2CCCC(=O)O)C34)cc1` (centres unmarked) [DM-1221, N-(4-methoxybenzyl) oxymatrinic acid]: the “Hsc70 inhibition rate (down-regulation of Hsc70 expression activity, expressed in relative OMT ratio)” value was 1.34.

In the case of `Cc1ccc(S(=O)(=O)N2CC3CCCN4CCCC(C34)C2CCCC(=O)O)cc1` (centres unmarked) [DM-102, N-(4-methylbenzenesulfonyl) matrinic acid], the “Hsc70 inhibition rate (down-regulation of Hsc70 expression activity, expressed in relative OMT ratio)” value worked out at 1.1.

As to `O=C1CCC[C@@H]2[C@H]3CCCN4CCC[C@@H](CN12)[C@@H]34` [MT, Matrine], the “Hsc70 inhibition rate (down-regulation of Hsc70 expression activity, expressed in relative OMT ratio)” value was −16.

As for `CC(=O)OC1CC2C3CCCN4CCCC(CN2C(=O)C1O)C34` (centres unmarked) [Compound 9j, 14-hydroxyl-13-acetyloxy matrine], the “Hsc70 mRNA” value is 54.8 ± 0.21.

With `O=C(O)CCCC1C2CCCN3CCCC(CN1C(=O)C=Cc1ccccc1)C23` (centres unmarked) [DM-110, N-cinnamoyl matrinic acid], the “Hsc70 inhibition rate (down-regulation of Hsc70 expression activity, expressed in relative OMT ratio)” value is under 10.

For the molecule 13,14-diacetyloxy matrine [Compound 9c], the “Hsc70 mRNA” value was under 10.

With `COC1CC2C3CCCN4CCCC(CN2C(=O)C1OC)C34` (centres unmarked) [Compound 9a, 13,14-dimethoxy matrine], the “Hsc70 mRNA” value is recorded as 39.3 ± 0.20.

As to `O=C(O)CCCC1C2CCCN3CCCC(CN1S(=O)(=O)c1ccccc1)C23` (centres unmarked) [DM-109, N-benzenesulfonyl matrinic acid], the “Hsc70 inhibition rate (down-regulation of Hsc70 expression activity, expressed in relative OMT ratio)” value was under 10.

On to `C[N+]1(C)CC2CCCN3CCCC(C23)C1CCCC(=O)[O-]` (centres unmarked) [DM-111, N,N-dimethyl matrinic acid], for which the “Hsc70 inhibition rate (down-regulation of Hsc70 expression activity, expressed in relative OMT ratio)” value came out at 0.25.

Regarding `O=C(CCl)OC1CC2C3CCCN4CCCC(CN2C(=O)C1O)C34` (centres unmarked) [Compound 9f, 14-hydroxyl-13-chloroacetyloxy matrine], the “Hsc70 mRNA” value was determined as 88.2 ± 0.21.

Turning to `O=C(OC1CC2C3CCCN4CCCC(CN2C(=O)C1OC(=O)c1ccc(F)c([N+](=O)[O-])c1)C34)c1ccc(F)c([N+](=O)[O-])c1` (centres unmarked) [Compound 9d, 13,14-di(4-fluoro-3-nitro) benzoyloxy matrine], the “Hsc70 mRNA” value is 30.8 ± 0.06.

Turning to `C=C(C)[C@H](CCC(C)(C)O)Cc1c(O)cc(OC)c2c1O[C@H](c1ccc(O)cc1O)CC2=O` [DM-200, kurarinol], the “Hsc70 inhibition rate (down-regulation of Hsc70 expression activity, expressed in relative OMT ratio)” value worked out at 0.81.

With `O=C(O)CCCC1C2CCCN3CCCC(CN1CCO)C23` (centres unmarked) [DM-117, N-(2-hydroxyl)ethyl matrinic acid], the “Hsc70 inhibition rate (down-regulation of Hsc70 expression activity, expressed in relative OMT ratio)” value worked out at 0.84.
